In patent US20090286787A1, “SUBSTITUTED GAMMA LACTAMS AS THERAPEUTIC AGENTS” (ALLERGAN, INC., priority 2008, published 2009):

Test system: lashes and adjacent hairs of patients
Assay: lash and hair appearance in glaucoma patients treated in only one eye
Format: in vivo, human
Details: unilateral treatment
Source text: In the course of treating patients having glaucoma, treatment may only be appropriate in one eye. […] The lash appearance on the lids of the treated eyes would have appeared quite attractive if it represented a bilateral phenomenon. As a result of its asymmetric nature, the long lashes on one side could be construed as disturbing from a cosmetic standpoint. A systemic examination was preformed as a result of the asymmetric phenomenon. It soon became apparent that this altered appearance was not an isolated finding. […] Definite differences could be identified to varying degrees in the lashes and adjacent hairs of all patients who were taking the drug on a unilateral basis for longer than 6 months.
The changes in the lashes were apparent on gross inspection in several patients once attention was focused on the issue. In those with light colored hair and lashes, the differences were only seen easily with the aid of the high magnification and lighting capabilities of the slit lamp biomicroscope. In the course of glaucoma follow-up examination, attention is generally immediately focused on the eye itself. As a result of the high power magnification needed only one eye is seen at a time and the eye is seen at a high enough power that the lashes are not in focus. […]

## CCNC(=O)CCC/C=C\C[C@@H]1[C@@H](/C=C/[C@@H](O)CCc2ccccc2)[C@H](O)C[C@@H]1O [bimatoprost]
  lash growth, treated eye versus non-treated eye: longer, thicker, and fuller in the treated eye than in the non-treated eye
